Experimental data as given in patent US20130315843A1, “COMPOSITION FOR REDUCTION OF TRPA1 AND TRPV1 SENSATIONS” (priority 2012, published 2013).
“And” between values parts separate entries of the source, which are not always exact repeats. Equal entries are not always repeated.

Assays:
[1] = Trained sensory panel, burning and numbing sensation after hydrogen peroxide mouthwash; format: in vivo, human; design: key to Burning Sensation: 0 = no sensation, 60 = highest intensity sensation; conditions: scale 0-60
Description: (§1) For EXAMPLES 6 and 7 sensory evaluation studies of menthol and hydrogen peroxide activity were conducted using a methodology patterned after the techniques described in M. C. Meilgaard, et al., Sensory Evaluation Techniques, 4th Ed. (2007). In one study, a panel of 8-15 trained sensory experts evaluated the menthol or peroxide sensations experienced after brushing with a dentifrice containing the menthol or hydrogen peroxide and the respective TRPA1 or TRPV1 antagonists. Panelists brushed teeth with 1.5 grams of a dentifrice (containing coolant) or control (no coolant) and then expectorated. After brush expectoration, panelists evaluated the burn intensity, assigning a number between 0 (no burning) to 60 ([…]). After rinse expectoration, panelists evaluated burning intensity according to the same 0 to 60 scale. Evaluations were conducted at 5, 15, 30, 45, 60 minute, etc. time points. At each evaluation, panelists were instructed to breathe in through pursed lips and evaluate overall burning sensation. In this test, a numerical score difference from the control of 7.5 indicates user significant differences or definite reduction in burning at the specified time point. Measures between 4.0 to 7.5 indicate a noticeable trend in the specified parameter, which is not statistically significant, but noticeable.
For EXAMPLE 7, a panel of 10 trained sensory experts evaluated the sensory profile experienced after rinsing with 30 grams of a test mouthwash (containing hydrogen peroxide and TRPA1 or TRPV1 antagonist) or control (containing hydrogen peroxide and no TRPA1 or TRPV1 antagonist) for 30 seconds and then expectorated. After expectoration, panelists evaluated the sensorial profile (cooling, warming, burning, numbing, and astringency), assigning a number between 0 (no sensation) to 60 (highest intensity sensation). Evaluations were conducted at 2.5, 5, 10, 20, and 30 minute time points, following expectoration at each evaluation, panelists were instructed to breathe in through pursed lips and evaluate overall burning or numbing sensation. The hydrogen peroxide containing mouthwash formulations are shown below in TABLE 11. The mouthwash samples tested comprised a control having the components listed in TABLE 11 by weight % of the composition or the control formulation plus TRPA1 or TRPV1 antagonist, as shown in TABLE 12. The mouthwashes were made using conventional methods and are shown below with amounts in weight % of total composition.

human TRPV1 [2] = target: T1, human TRPV1 (Homo sapiens, UniProt Q8NER1); assay: FLIPR Ca2+ assay, reduction of capsaicin activation of TRPV1; format: cell-based; design: expressed in transfected cells; conditions: for Ca++ counts: with compound
Description: (§2) Cells were detached with addition of 10 ml of PBS (phosphate buffered saline) by hand shaking gently. Cells were transferred to a 50 ml tube and centrifuged at 850 rpm for 3 minutes to remove PBS.
(§3) The pelleted cells were re-suspended in 10 ml assay buffer and 90 μl aliquots (˜50,000 cells) per well delivered to a 96-well assay plate containing 10 μl of test compounds ([…]) or buffer control and incubated at room temperature for 30 minutes.

human TRPV1 [3] = target: T1, human TRPV1; assay: FLIPR Ca2+ assay, reduction of hydrogen peroxide activation of TRPV1; format: cell-based; design: expressed in transfected cells; conditions: for Ca++ counts: with compound
Description: as §2
The pelleted cells were re-suspended in 10 ml assay buffer and 90 μl aliquots (˜50,000 cells) per well delivered to a 96-well assay plate containing 10 μl of test compounds (1 mM in assay buffer, […]) or buffer control and incubated at room temperature for 30 minutes.

[4] = Trained sensory panel, burn sensation after brushing with menthol dentifrice; format: in vivo, human; design: key: 0 = no burning to 60 = highest intensity; 7.5 difference = significant; conditions: scale 0-60
Description: as §1
For EXAMPLE 6 (TABLES 8 and 9), a panel of 14 trained sensory experts evaluated the sensory profile experienced after brushing with the dentifrice sample formulations shown in TABLES 6 and 7 containing high levels of menthol followed by rinsing with water. Panelists brushed teeth with 1.5 grams of a test dentifrice (containing high menthol levels) or control (no menthol) for 36 seconds and then expectorated. The dentifrice sample formulations (control and high L-Menthol) are shown below in TABLE 6 (with peppermint flavor) and TABLE 7 (with spearmint flavor). The dentifrices were made using conventional methods and are shown below with component amounts in weight % of total composition. […]
For TABLE 10 all the Samples had the same formulation as Sample E from TABLE 6, except for the Control which lacked menthol. After brushing or mouthwash expectoration, panelists evaluated the burning sensation, assigning a number between 0 (no sensation) to 60 (highest intensity sensation). Evaluations were conducted at 5, 10, 20 and 30 minute time points, following expectoration. At each evaluation, panelists were instructed to breathe in through pursed lips and evaluate overall sensation. In this test, a numerical score of 7.5 indicates a significant user noticeable sensation. Differences less than 7.5, but greater than 5.0 indicate the trending of the data on a specific attribute.

human TRPA1 [5] = target: T2, human TRPA1 (Homo sapiens, UniProt O75762); assay: FLIPR Ca2+ assay, reduction of hydrogen peroxide activation of TRPA1; format: cell-based; design: expressed in transfected cells
Description: (§4) After centrifugation, a pellet of cells was formed in the bottom of the tube separating them from the supernatant solution.
as §3

[6] = Headspace GC reduction of 1-propanethiol by protectant (Michael Acceptor) compounds; conditions: for Percent Thiol Reduction vs. Control: 0.1% SLS; for % Thiol Reduction: 0.1% sodium lauryl sulfate, 1% test compound, headspace
Description: For EXAMPLES 11 and 12 a 0.1% sodium lauryl sulfate (SLS) aqueous solution was prepared to contain either 1 ppm or 10 ppm of 1-propanethiol. SLS solution was added to the sample and control solutions to assist in solubilization of the more hydrophobic compounds. Control solutions contained surfactant and 1-propanethiol, while sample solutions contained these components plus a protectant compound added at either 0.01% or 0.05%. 100 μL aliquots of control or test solutions were aliquotted into a 22 mL headspace vial, vortexed for 30 seconds, and incubated for 30 minutes at 60 C in an oven. After that period, 1 mL of head space was sampled and injected into an Agilent 7890 gas chromatograph equipped with a sulfur chemiluminescence detector (GC-SCD). Peak areas of the 1-propanethiol control sample (no protectant compound added) were established by triplicate injection of the control sample. The area of the propanethiol peak produced from samples containing selected protectant molecules were then determined and ratioed to the 1-propanethiol control peak area, subtracted from 1, and multiplied by 100 to calculate percent reduction of the thiol peak, thus indicating the effectiveness of each protectant at reducing the level of thiol.
The samples in TABLE 17 were prepared by combining 1 ppm 1-propanethiol with 0.1% sodium lauryl sulfate with 1% of the test compounds. The volatile sulfurs were measured with headspace GC/MS using a SPEME column to capture the volatile sulfur.
The samples in TABLE 18 were prepared by combining either 1 or 10 ppm 1-propanethiol with 0.1% sodium lauryl sulfate with either 0.01% or 0.05% of the test compounds.

human TRPA1 [7] = target: T2, human TRPA1; assay: FLIPR intracellular Ca2+ assay, direct (agonist) effect on TRPA1; format: cell-based; design: expressed in transfected cells
Description: as §4
The pelleted cells were re-suspended in 10 ml assay buffer and 90 μl aliquots (˜50,000 cells) per well delivered to a 96-well assay plate containing 10 μl of test compounds (1 mM in assay buffer, final concentration 100 μM) or buffer control and incubated at room temperature for 30 minutes.

[8] = 2 Min 30 SEC After Expectoration, H2O2 mouthwash, antagonist levels as E48
[9] = 5 Min After Expectoration, H2O2 mouthwash, antagonist levels as E48
[10] = 10 Min After Expectoration, H2O2 mouthwash, antagonist levels as E48
[11] = 20 Min After Expectoration, H2O2 mouthwash, antagonist levels as E48
[12] = 30 Min After Expectoration, H2O2 mouthwash, antagonist levels as E48
[13] = After Expectoration, H2O2 mouthwash, antagonist levels as E48
[14] = Initial in Mouth, hydrogen peroxide mouthwash (TABLE 11) with Apritone 200 ppm, Isobornyl Isobutyrate 100 ppm, Dihydrojasmone 6 ppm as named, 10 panelists
[15] = 5 Min After Rinse, dentifrice Sample E (1% menthol) with antagonist levels as E42
[16] = 10 Min After Rinse, dentifrice Sample E (1% menthol) with antagonist levels as E42
[17] = 20 Min After Rinse, dentifrice Sample E (1% menthol) with antagonist levels as E42
[18] = 30 Min After Rinse, dentifrice Sample E (1% menthol) with antagonist levels as E42
[19] = After Expectoration, dentifrice Sample E (1% added menthol) with Apritone 200 ppm, Dihydrojasmone 6 ppm, Isobornyl Isobutyrate 100 ppm, α-heptyl-γ-valerolactone 100 ppm as named
[20] = After Rinse, dentifrice Sample E (1% menthol) with antagonist levels as E42
[21] = 1 ppm 1-propanethiol, 0.01% test compound
[22] = 1 ppm 1-propanethiol, 0.05% test compound
[23] = 10 ppm 1-propanethiol, 0.01% test compound
[24] = 10 ppm 1-propanethiol, 0.05% test compound

T2 sequence (O75762 whole entry): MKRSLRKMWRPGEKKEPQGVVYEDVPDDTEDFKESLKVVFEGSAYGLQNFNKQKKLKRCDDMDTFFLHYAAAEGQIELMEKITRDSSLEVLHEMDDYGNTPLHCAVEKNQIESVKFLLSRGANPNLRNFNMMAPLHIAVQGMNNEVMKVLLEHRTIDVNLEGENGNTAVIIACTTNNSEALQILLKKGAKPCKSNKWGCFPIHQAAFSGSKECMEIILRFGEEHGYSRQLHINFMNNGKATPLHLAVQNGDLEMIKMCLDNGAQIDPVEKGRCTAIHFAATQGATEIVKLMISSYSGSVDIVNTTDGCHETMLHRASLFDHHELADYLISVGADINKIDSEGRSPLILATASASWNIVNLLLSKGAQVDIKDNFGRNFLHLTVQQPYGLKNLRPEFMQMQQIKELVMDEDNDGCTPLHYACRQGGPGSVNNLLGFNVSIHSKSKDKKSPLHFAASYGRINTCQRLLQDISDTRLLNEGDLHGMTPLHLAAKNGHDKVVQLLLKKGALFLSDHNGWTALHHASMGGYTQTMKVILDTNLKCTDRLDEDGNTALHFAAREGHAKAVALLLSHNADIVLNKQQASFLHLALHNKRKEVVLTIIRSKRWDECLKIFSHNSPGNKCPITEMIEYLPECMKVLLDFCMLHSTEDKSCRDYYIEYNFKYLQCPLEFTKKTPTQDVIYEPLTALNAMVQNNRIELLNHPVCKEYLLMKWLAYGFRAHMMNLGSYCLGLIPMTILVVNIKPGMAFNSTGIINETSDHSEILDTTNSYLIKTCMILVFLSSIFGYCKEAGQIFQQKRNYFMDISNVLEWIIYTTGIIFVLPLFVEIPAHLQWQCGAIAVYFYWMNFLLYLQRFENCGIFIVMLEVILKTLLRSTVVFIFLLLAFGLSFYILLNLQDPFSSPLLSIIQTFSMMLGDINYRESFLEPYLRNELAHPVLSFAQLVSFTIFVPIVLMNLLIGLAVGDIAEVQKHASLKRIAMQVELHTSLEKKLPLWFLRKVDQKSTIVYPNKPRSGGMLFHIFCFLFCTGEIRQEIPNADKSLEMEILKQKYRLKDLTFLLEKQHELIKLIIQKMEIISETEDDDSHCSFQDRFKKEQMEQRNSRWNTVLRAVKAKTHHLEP
T1 sequence (Q8NER1 whole entry): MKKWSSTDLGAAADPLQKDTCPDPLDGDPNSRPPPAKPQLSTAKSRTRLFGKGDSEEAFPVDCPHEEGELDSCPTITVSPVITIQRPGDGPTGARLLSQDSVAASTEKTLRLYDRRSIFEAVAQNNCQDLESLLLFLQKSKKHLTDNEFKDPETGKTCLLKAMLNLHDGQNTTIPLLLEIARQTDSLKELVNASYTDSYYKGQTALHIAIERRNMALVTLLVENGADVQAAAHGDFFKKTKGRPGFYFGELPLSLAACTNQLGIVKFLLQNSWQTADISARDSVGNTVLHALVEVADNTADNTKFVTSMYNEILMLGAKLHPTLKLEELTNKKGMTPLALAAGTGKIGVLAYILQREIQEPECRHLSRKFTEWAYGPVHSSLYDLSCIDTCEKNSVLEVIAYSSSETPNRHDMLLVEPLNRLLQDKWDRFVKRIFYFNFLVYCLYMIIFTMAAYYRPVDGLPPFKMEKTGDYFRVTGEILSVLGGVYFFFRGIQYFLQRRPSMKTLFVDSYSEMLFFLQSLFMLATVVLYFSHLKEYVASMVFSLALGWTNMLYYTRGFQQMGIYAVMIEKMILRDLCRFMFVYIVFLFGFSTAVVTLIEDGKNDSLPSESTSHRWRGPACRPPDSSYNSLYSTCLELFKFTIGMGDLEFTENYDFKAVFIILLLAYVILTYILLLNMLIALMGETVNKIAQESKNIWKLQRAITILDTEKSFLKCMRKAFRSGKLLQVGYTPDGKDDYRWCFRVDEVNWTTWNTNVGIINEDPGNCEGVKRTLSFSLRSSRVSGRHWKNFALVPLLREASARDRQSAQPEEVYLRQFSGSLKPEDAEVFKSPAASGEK

CC(C)C(=O)O[C@@H]1C[C@H]2CC[C@]1(C)C2(C)C [Isobornyl Isobutyrate]
Burning Sensation [1, 8]: 17.6
Numbing Sensation [1, 8]: 7.9
Burning Sensation [1, 9]: 11.4
Numbing Sensation [1, 9]: 5.8
Burning Sensation [1, 10]: 5.1
Numbing Sensation [1, 10]: 2.5
Burning Sensation [1, 11]: 0.0
Numbing Sensation [1, 11]: 0.0
Burning Sensation [1, 12]: 0.0
Numbing Sensation [1, 12]: 0.0
Burning Sensation [1, 13]: 20.9
Numbing Sensation [1, 13]: 8.4
Burning Sensation [1, 14]: 12.7
% inhibition of TRPV1 activation by 350 nM Capsaicin (human TRPV1 [2]; Dose 1000): 1.5%
Ca++ counts (human TRPV1 [2]; Dose 1000, 350 nM Capsaicin): 14803
reduction of hydrogen peroxide activation of TRPV1, in words (human TRPV1 [3]): hydrogen peroxide reduction of TRPV1
% inhibition of TRPV1 activation by 500 uM H2O2 (human TRPV1 [3]; Dose 1000): 52%
% Reduction of Hydrogen Peroxide TRPV1 Activation (human TRPV1 [3]; antagonist 100 μM against 500 μM hydrogen peroxide): 52%
Ca++ counts (human TRPV1 [3]; Dose 1000, 500 uM H2O2): 541
Burning Sensation Rating [4, 15]: 12.8
Burning Sensation Rating [4, 16]: 5.6
Burning Sensation Rating [4, 17]: 0.6
Burning Sensation Rating [4, 18]: 0.0
Burning Sensation Rating [4, 19]: 25.4
Burning Sensation Rating [4, 20]: 22.8
% Reduction of Hydrogen Peroxide TRPA1 Activation (human TRPA1 [5]): 80%
Block of hydrogen peroxide activation of TRPA1 (human TRPA1 [5]): BLOCK ONLY H2O2/TRPA1
reduction of hydrogen peroxide activation of TRPA1, in words (human TRPA1 [5]): reduced hydrogen peroxide activation of TRPA1

CCCCCC1=C(C)CCC1=O [Dihydrojasmone]
Burning Sensation [1, 8]: 13.1
Numbing Sensation [1, 8]: 6.9
Burning Sensation [1, 9]: 8.9
Numbing Sensation [1, 9]: 6.3
Burning Sensation [1, 10]: 2.8
Numbing Sensation [1, 10]: 0.8
Burning Sensation [1, 11]: 0.8
Numbing Sensation [1, 11]: 0.0
Burning Sensation [1, 12]: 0.6
Numbing Sensation [1, 12]: 0.0
Burning Sensation [1, 13]: 16.9
Numbing Sensation [1, 13]: 6.9
Burning Sensation [1, 14]: 12.5
% inhibition of TRPV1 activation by 350 nM Capsaicin (human TRPV1 [2]; Dose 4000): 4%
Ca++ counts (human TRPV1 [2]; Dose 4000, 350 nM Capsaicin): 11397
% inhibition of TRPV1 activation by 500 uM H2O2 (human TRPV1 [3]; Dose 4000): 98%
% Reduction of Hydrogen Peroxide TRPV1 Activation (human TRPV1 [3]; antagonist 400 μM against 500 μM hydrogen peroxide): 98%
Ca++ counts (human TRPV1 [3]; Dose 4000, 500 uM H2O2): 38
Burning Sensation Rating [4, 15]: 11.3
Burning Sensation Rating [4, 16]: 2.5
Burning Sensation Rating [4, 17]: 0.0
Burning Sensation Rating [4, 18]: 0.0
Burning Sensation Rating [4, 19]: 24.1
Burning Sensation Rating [4, 20]: 21.3
Percent Thiol Reduction vs. Control [6, 21]: 79.0%
Percent Thiol Reduction vs. Control [6, 22]: 92.1%
% Thiol Reduction ([6]; 1 ppm 1-propanethiol): significantly or completely reduced sulfur production
thiol reduction, comparison in words ([6]; 1 ppm 1-propanethiol, compound 0.01% and 0.05%): better reduction in thiol than delta damascone
Percent Thiol Reduction vs. Control [6, 23]: 41.3%
Percent Thiol Reduction vs. Control [6, 24]: 66.7%
thiol reduction, comparison in words ([6]; 10 ppm 1-propanethiol, compound 0.05%): close to delta damascone's thiol reduction

CC1=CC(=O)CC(C)(C)C1 [Isophorone]
% Thiol Reduction ([6]; 1 ppm 1-propanethiol): 43.1%

CCc1occc(=O)c1O [Ethyl maltol]
% Thiol Reduction ([6]; 1 ppm 1-propanethiol): −17.2%

C/C=C/C(=O)C1C(C)C=CCC1(C)C (centres unmarked) [delta damascone]
thiol reduction, comparison in words ([6]; 10 ppm 1-propanethiol, compound 0.01%): higher activity at its lower concentration (0.01%) than any of the other michael acceptor's

CC(=O)c1ccc[nH]1 [Acetylpyrrole]
% Thiol Reduction ([6]; 1 ppm 1-propanethiol): 37.3%

C/C=C/C(=O)C1C(C)C=CCC1(C)C (centres unmarked) [delta-Damascone]
Percent Thiol Reduction vs. Control [6, 21]: 77.7%
Percent Thiol Reduction vs. Control [6, 22]: 82.3%
Percent Thiol Reduction vs. Control [6, 23]: 81.0%
Percent Thiol Reduction vs. Control [6, 24]: 81.2%

O=C/C=C/c1ccccc1 [Cinnamic aldehyde]
Percent Thiol Reduction vs. Control [6, 21]: 36.8%
Percent Thiol Reduction vs. Control [6, 22]: 52.4%
Percent Thiol Reduction vs. Control [6, 23]: −10.0%
Percent Thiol Reduction vs. Control [6, 24]: −5.7%

CC/C=C\CC1=C(C)CCC1=O [cis-Jasmone]
Percent Thiol Reduction vs. Control [6, 21]: 36.1%
Percent Thiol Reduction vs. Control [6, 22]: 55.3%
Percent Thiol Reduction vs. Control [6, 23]: 25.4%
Percent Thiol Reduction vs. Control [6, 24]: 8.2%

C=CCN=C=S [AITC, allyl isothiocyanate]
Average Ca++ Counts (human TRPA1 [7]; AITC 50 μM alone, each Set 1-4): 8322.5 Counts and 14138.2 Counts and 15213.0 Counts and 11209.0 Counts
Ca2+ Count, TRPA1 (human TRPA1 [7]; control agonist AITC 50 μM): 12219 Count
